This passage reports IC50 results from patent publication US9943504B2, “Arginine methyltransferase inhibitors and uses thereof” (Epizyme, Inc., priority 2013, dated 2018).

In the experiment the target is T1, human PRMT6 (Homo sapiens, UniProt Q96LA8).
T1 construct: Flag-PRMT6-His was eluted with 200 ug/ml FLAG peptide in the same buffer; made in house; host or cells: HEK 293F cells (BacMam baculovirus)
Put plainly: PRMT6 Biochemical Assay. To be noted: biochemical evaluation, peptide substrate. From the text: S-adenosylmethionine (SAM), S-adenosylhomocysteine (SAH), bicine, Tween20, dimethylsulfoxide (DMSO), bovine skin gelatin (BSG), sodium butyrate and Tris(2-carboxyethyl)phosphine hydrochloride solution (TCEP) were purchased from Sigma-Aldrich at the highest level of purity possible. ^3H-SAM was purchase from American Radiolabeled Chemicals with a specific activity of 80 Ci/mmol. 384-well streptavidin Flashplates were purchased from PerkinElmer.
Peptide representative of human histone H4 residues 36-50 was synthesized with an N-terminal linker-affinity tag motif and a C-terminal amide cap by 21st Century Biochemicals. The peptide was purified by high-performance liquid chromatography (HPLC) to greater than 95% purity and confirmed by liquid chromatography mass spectrometry (LC-MS). The sequence was Biot-Ahx-[…]-amide and contained a monomethylated lysine at position 44 (SEQ ID NO.: 5). […]
The assays were all performed in a buffer consisting of 20 mM Bicine (pH=7.6), 1 mM TCEP, 0.005% BSG, and 0.002% Tween 20, prepared on the day of use. […] The plates were then read in a PerkinElmer TopCount plate reader to measure the quantity of ^3H-labeled peptide bound to the Flashplate surface, measured as disintegrations per minute (dpm) or alternatively, referred to as counts per minute (cpm). […]

Molecules are shown by their SMILES.

T1 sequence (Q96LA8 with tags, fused parts or gaps): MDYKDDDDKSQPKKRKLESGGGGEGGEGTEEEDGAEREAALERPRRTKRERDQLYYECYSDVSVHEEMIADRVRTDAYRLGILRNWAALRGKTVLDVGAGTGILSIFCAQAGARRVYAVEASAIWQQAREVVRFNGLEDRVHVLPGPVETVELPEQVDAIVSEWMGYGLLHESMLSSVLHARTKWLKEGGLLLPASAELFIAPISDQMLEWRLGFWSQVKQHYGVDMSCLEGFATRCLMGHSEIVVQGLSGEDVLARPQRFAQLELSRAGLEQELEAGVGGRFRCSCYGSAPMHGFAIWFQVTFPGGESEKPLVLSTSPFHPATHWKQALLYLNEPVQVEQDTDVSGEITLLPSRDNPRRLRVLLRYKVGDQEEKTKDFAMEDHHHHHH

On to `CN(CCN)Cc1n[nH]c2cccc(OCc3ccccc3)c12` [Compound 1], for which the half-maximal inhibitory concentration (IC50) is at most 0.1 µM.

As usually defined, the IC50 is the midpoint of a concentration-inhibition curve. A higher IC50 goes with lower potency.
